# From patent publication US20080249124A1, “WORTMANNIN-RAPALOG CONJUGATE AND USES THEREOF” (Wyeth, priority 2007, published 2008)
# Key:
# [1] = tested on: PI3K; conditions: cited from earlier work
# [2] = tested on: C3H mammary model; conditions: cited from earlier work
# [3] = tested on: U87MG (human glioblastoma) tumor; assay: Xenograft tumor efficacy study; type: in vivo; conditions: female nude mice; for tumor size versus control and single reference compounds: 15 mg/kg IV on day 0 and day 7, D5W vehicle; for tumor size versus mixture of reference compounds 1 and 2: 15 mg/kg IV on day 0 and day 7, mixture 10 mg/kg/5 mg/kg
# Procedure: Female nude mice at 10 weeks of age were inoculated subcutaneously on the flank with 200 μL U87MG (human glioblastoma) tumor cell suspension. U87MG cells were suspended in full growth media and were implanted at 10 million cells per mouse. Mice were staged when tumors reached approximately 200 mm^3 in sizes. Tumor bearing mice at staging (day 0) were randomized into treatment groups (n=10). The conjugates described herein were formulated in D5W vehicle (glucose-water) and were dosed IV on day 0 and day 7. See, Table 6.
# The growth of tumors was monitored twice a week for the duration of the experiment. Tumor size was measured using sliding vernier calipers, and the tumor mass was calculated using the formula (length×Width^2)/2.
# [4] = tested on: tumor xenografts; conditions: animals; cited from earlier work
compound,measurement,setting,value
COCC1OC(=O)c2coc3c2C1(C)C1=C(C3=O)C2CCC(O)C2(C)CC1OC(C)=O (stereo not drawn) [17β-Hydroxywortmannin],increase in activity relative to wortmannin,[1]; PI3K,10 fold
same,IC50,[1],0.5 nM
same,anti-tumor activity,[2]; dose of 0.5 mg/kg,no inhibition
same,toxicity,[2]; dose of 1.0 mg/kg,toxicity
"COC[C@H]1OC(=O)/C(=C/N(C)CCCN(C)C)C2=C(O)C(=O)C3=C([C@H](OC(C)=O)C[C@@]4(C)C3CC[C@@H]4OC(=O)CCCCCCC(=O)O[C@H]3CC[C@H](C[C@@H](C)[C@@H]4CC(=O)[C@H](C)/C=C(\C)[C@@H](O)[C@@H](OC)C(=O)[C@H](C)C[C@H](C)/C=C/C=C/C=C(\C)[C@@H](OC)C[C@@H]5CC[C@@H](C)[C@@](O)(O5)C(=O)C(=O)N5CCCC[C@H]5C(=O)O4)CC3)[C@]21C (stereo partly shown) [Example 2b, N,N,N′-trimethyl-1,3-propanediamine adduct of 42,17′-linked 41-Desmethoxyrapamycin-Suberate-Wortmannin conjugate]",tumor size versus control and single reference compounds,[3],smaller tumors than tumors treated with control or with reference compound 1 or reference compound
same,tumor size versus mixture of reference compounds 1 and 2,[3],tumors of comparable size to that achieved with a mixture of reference compounds 1 and 2
COC[C@H]1OC(=O)c2coc3c2[C@@]1(C)C1=C(C3=O)[C@@H]2CCC(=O)[C@@]2(C)C[C@H]1OC(C)=O [Wortmannin],PI3K inhibition,[1],"irreversible inhibitor, at nanomolar concentrations"
same,antitumor activity against tumor xenografts,[4],antitumor activity against tumor xenografts in animals
"Diallylamine Adduct of 42,17′-linked 41-Desmethoxyrapamycin-Suberate-Wortmannin Conjugate [Example 2a]",tumor size versus control and single reference compounds,[3],smaller tumors than tumors treated with control or with reference compound 1 or reference compound
diallylamine adduct of 17-hydroxywortmannin [compound 2],tumor size versus mixture of reference compounds 1 and 2,[3],tumors of comparable size to that achieved with a mixture of reference compounds 1 and 2
